Assay results: publication PMC8252455, “Prediction of a clinically effective dose of THY1773, a novel V 1B receptor antagonist, based on preclinical data” (Biopharmaceutics & Drug Disposition, 2021)

Tests used:
plasma ACTH = test system: plasma ACTH; set-up: method as in Kamiya et al., 2020; conditions: rats, oral, doses with >50% V1B occupancy; ref Kamiya et al., 2020; cited from earlier work
[1] = Plasma protein binding by equilibrium dialysis, human plasma; type: in vitro ADME; conditions: PBPK input, experimental data
Experimental: The plasma protein binding of THY1773 in rats, dogs, and humans was evaluated by an equilibrium dialysis method using a 96‐well equilibrium dialysis plate (HTDialysis) with a 12–14 kDa cut‐off dialysis membrane. THY1773 was dissolved in dimethyl sulfoxide, and spiked with rat, dog, or human plasma at a final concentration of 300 ng/ml. An aliquot of plasma containing THY1773 and sodium phosphate buffer (pH 7.4) was added into the donor side and the receiver side of each designated well, respectively. After incubation for 6 h at a rate of 50 oscillation/min at 37°C in an air incubator, an aliquot of each side of each well was collected and mixed with acetonitrile/methanol (9:1, vol/vol) containing the IS. Each sample was centrifuged at 3974 × g for 10 min at 4°C to remove the precipitated proteins, and the resultant supernatants were subjected to LC‐MS/MS analysis. The protein binding (%) was calculated using the Boudinot formula (Boudinot & Jusko, 1984).

[2] = Blood-to-plasma ratio in dog whole blood; type: in vitro ADME; conditions: 1 μmol/L
Experimental: (§1) The blood‐to‐plasma ratios of THY1773 were analyzed using pooled fresh whole blood (anticoagulant: EDTA‐2K) and control plasma separated from fresh whole blood in parallel from rats, dogs, and humans. Whole blood and control plasma containing 1 μmol/L THY1773 were incubated at 37°C for 30 min in a shaking water bath. The incubated whole blood was centrifuged at 2000 × g for 10 min at 4°C to obtain plasma. An aliquot of each plasma sample (i.e., isolated plasma from incubated whole blood and control plasma) was mixed with 8 volumes of acetonitrile/methanol (9:1, vol/vol) containing the IS. After centrifugation at 3974 × g for 10 min at 4°C, the supernatant was subjected to liquid chromatography/tandem mass spectrometry (LC‐MS/MS) analysis. The blood‐to‐plasma ratio was calculated by dividing the […].

pituitary V1B receptor = molecular target: T1, pituitary V1B receptor (Homo sapiens, UniProt P47901); assay: Phase 1 RO study using PET; type: in vivo; conditions: unpublished data
T1 construct: from tissue; host or cells: pituitary gland of human subjects, in vivo PET
T1 sequence (P47901 1-424): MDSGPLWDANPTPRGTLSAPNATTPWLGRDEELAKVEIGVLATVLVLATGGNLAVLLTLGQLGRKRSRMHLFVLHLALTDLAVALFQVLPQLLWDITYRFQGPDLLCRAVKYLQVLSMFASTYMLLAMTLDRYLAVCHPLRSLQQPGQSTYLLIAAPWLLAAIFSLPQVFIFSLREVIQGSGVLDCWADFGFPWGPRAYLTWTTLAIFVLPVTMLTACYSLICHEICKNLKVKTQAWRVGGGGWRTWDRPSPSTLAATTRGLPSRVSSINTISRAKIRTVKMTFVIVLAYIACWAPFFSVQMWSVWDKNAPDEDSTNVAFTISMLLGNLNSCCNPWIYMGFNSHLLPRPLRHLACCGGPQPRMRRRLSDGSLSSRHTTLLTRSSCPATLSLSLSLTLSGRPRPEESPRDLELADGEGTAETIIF

[3] = Parallel artificial membrane permeability assay (PAMPA); type: in vitro ADME
Experimental: The membrane permeability of THY1773 was measured using a parallel artificial membrane permeability assay (PAMPA) Evolution instrument (Pion Inc.). A “sandwich” plate consisting of a donor bottom plate with stir bars and an acceptor filter plate was used for the experiment. A donor plate was prepared by the addition of THY1773 to diluted PRISMA HT at pH 6.2 (final concentration of 12.5 μmol/L). An acceptor plate was coated with GIT‐0 lipid solution, followed by the addition of acceptor sink buffer (pH 7.4). After incubation for 4 h at room temperature, the concentrations of THY1773 in the reference, donor, and acceptor solutions were measured with a UV plate reader. The apparent permeability (Papp) was calculated using the PAMPA Evolution software (version 3.1; Pion Inc.).

[4] = Prediction of human CLtotal (FCIM, two-species allometry, IVIVE)
Text: Of the many reported methods for the prediction of human CL, the top two methods reported by Ring et al. (2011) were selected based on prediction accuracy; that is, the unbound fraction corrected intercept method (FCIM) and two‐species‐based allometry (rat and dog) described by Equations (2) and (3), respectively (Tang, Hussain, Leal, Mayersohn, & Fluhler, 2007; Tang & Mayersohn, 2005): (2) CLhuman(mL/min/kg)=33.35×(a/Rfu)^0.77/Humanbodyweight(kg) (3) CL=a×(Humanbodyweight)^0.628 where the allometric coefficient (a) is obtained from the intercept of the simple allometry log–log plot between rats and dogs, and Rfu is the ratio of unbound fraction in plasma between rats and humans. Human body weight was assumed to be 70 kg. The hepatic CL (CLliver) was also predicted by physiologically based in vitro–in vivo extrapolation (IVIVE) method using physiological parameters listed in Table 1 based on the well stirred model (Yang, Jamei, Yeo, Rostami‐Hodjegan, & Tucker, 2007).
Since the CLliver was underestimated in rats and dogs from CLint in liver microsomes, the ratio of observed in vivo CLint and predicted CLint was calculated as the empirical scaling factor (ESF) for the extrapolation of CLliver from in vitro data. Human CLliver was predicted from CLint in HLMs with and without applying the average of ESF derived from rats and dogs. The total plasma clearance (CLtotal) was calculated by Equation (4): (4) CLtotal=QH×fu×(CLint/fu,mic)/QH+(fu/Rb)×(CLint/fu,mic)+CLrenal where QH is hepatic blood flow, fu is the free fraction in plasma, fu,mic is the fraction unbound in HLMs, Rb is blood‐to‐plasma ratio, and CLrenal is renal clearance. The fu,mic value was calculated using the Simcyp population based simulator (Version 16 R1; Simcyp Ltd.). The CLrenal was estimated by multiplying fu by glomerular filtration rate (GFR), assuming glomerular filtration only.
The fold error of the difference between observed and predicted human PK parameters was calculated by dividing the predicted value by the observed value.

[5] = Physicochemical properties (Log P, pKa); conditions: experimental data
Text: TABLE 2 Human PBPK/RO model input parameters for THY1773 | column: Value

human V1B receptor = molecular target: T2, human V1B receptor (Homo sapiens, UniProt P47901); assay: In vitro [3H]AVP binding assay, membranes of 1321-N1 cells expressing human V1B receptor; conditions: 1321-N1 cell membranes, read-out: EC50 of RO model (Ki value for human V1B receptor binding inhibition)
T2 construct: expressed in transfected cells; host or cells: 1321-N1 cells (membranes)
T2 sequence (P47901 1-424): T1 sequence (P47901 1-424)

[6] = Blood-to-plasma ratio in human whole blood; type: in vitro ADME; conditions: 1 μmol/L
Experimental: as §1

## CC(C)NC(=O)Cn1c(-c2cccc(Cl)c2)nn(-c2ccc(CCN3CCOCC3)cc2)c1=O [THY1773]
Plasma ACTH
  Effect on increase in plasma ACTH induced by CRF/desmopressin challenge: significantly inhibited
[1]
  Fraction unbound in plasma: 0.017
[2]
  Blood-to-plasma ratio: 0.846
Pituitary V1B receptor; 10 mg
  V1B RO at steady state (PET): 55.3%
Pituitary V1B receptor; 50 mg
  V1B RO at steady state (PET): 75.1%
Pituitary V1B receptor; human PET
  In vivo EC50 for V1B RO compared with in vitro Ki for human V1B receptor: comparable (within twofold)
[3]; donor pH 6.2, 12.5 μmol/L, 4 h, room temperature
  Papp in PAMPA: 128.9 10^−6 cm/s
[3]; pH 6.2
  Permeability in the gut (assessment from PAMPA): high permeability
[4]; FCIM
  Predicted human CLtotal: 1.07 mL/min/kg
[4]; IVIVE method with ESF
  Predicted human CLtotal: 1.06 mL/min/kg
[4]; IVIVE method without ESF
  Predicted human CLtotal: 0.25 mL/min/kg
[4]; Two species allometry (rat and dog)
  Predicted human CLtotal: 3.73 mL/min/kg
[5]
  Log P: 3.17
[5]; monoprotic base
  pKa: 6.85
Human V1B receptor
  Ki: 3.51 nM
[6]
  Blood-to-plasma ratio: Theoretical limit (experimental data: 0.54)
